Assay results as given in ChEMBL document CHEMBL1932944, “Hoiamide D, a marine cyanobacteria-derived inhibitor of p53/MDM2 interaction” (Bioorg Med Chem Lett, 2012).
pEC50, pIC50: −log10 of the molar value.

Legend:
[1] = Inhibition of p53/HDM2 interaction
[2] = test system: NCI-H460; assay: Cytotoxicity against human H460 cells at 40 uM relative to control; assay type: functional
[3] = Inhibition of human biotin-labelled p53/GST-tagged Hdm2 interaction preincubated for 20 mins before GST-tagged Hdm2 protein addition measured after 1 hr by HTR-FRET based competition assay

pIC50 [1] | SMILES | Activity [2] | pEC50 [3]
5.34 | CCCCCCCC[C@H]1NC(=O)[C@@H](CC(C)C)NC(=O)[C@H]([C@@H](C)O)NC(=O)[C@@H](CC(C)C)NC(=O)[C@@H](CC(N)=O)NC(=O)[C@H](CC(N)=O)NC(=O)[C@H](C)NC(=O)[C@H]([C@@H](C)O)NC(=O)[C@H](CCCN2C=C3C(=O)[C@@](C)(OC(=O)CCC)C(=O)C(Cl)=C3[C@@H](O)[C@]23CCCO3)NC1=O (relative stereo) | – | –
3.64 | C=C(C(=O)O)C(CCCCCC)C(=O)O (centres undefined) [HEXYLITACONIC ACID] | – | –
– | CCC[C@@H](C)[C@H](O)[C@H](C)[C@@H](O)[C@@H](C)[C@H](Cc1nc(C2=N[C@@](C)(C3=N[C@@](C)(C(=O)N[C@H]([C@@H](O)[C@@H](C)C(=O)O)[C@@H](C)CC)CS3)CS2)cs1)OC [HOIAMIDE D] | 16% | 5.35
